In patent publication US9238131B2, “Ocular iontophoresis device” (priority 2005, dated 2016):

Conditions: rabbit, 40 mg/ml in water with no buffer, 2 mA-4 min
Excerpt: The assignee made some comparative tests on rabbits done with a first iontophoresis device having cylindrical outer and inner walls (as known in the prior art) and a second iontophoresis device as shown in FIG. 7 (i.e. the inner wall 26 and outer wall 24 being tapered with the same inclination angle).
The two devices were designed for having the same: • application surface 2; • distance between the active electrode 10 and the application surface 2.
The area of the active electrode 30 of the second device was about three times more important than those of the first device.
For each comparative test, iontophoresis conditions were the same (2 mA-4 min).
After iontophoresis, rabbit ocular tissues were sampled. Tissues sampled included choroids and retina.
Concentrations of active substances 30 in these ocular tissues were then measured.

C[C@@H]1C[C@H]2[C@@H]3CCC4=CC(=O)C=C[C@]4(C)[C@@]3(F)[C@@H](O)C[C@]2(C)[C@@]1(O)C(=O)COP(=O)([O-])[O-].[Na+].[Na+] [Dexamethasone Disodium Phosphate]
Increase of tissue concentration, second device versus first device, choroids: 3.7 | Times more active substance in the tissues with second (tapered) device than with first (cylindrical) device (choroids and retina): At least three
